Here are results for 17 molecules from patent publication US6057447A, “Quinoline sulfide derivatives” (Zenyaku Kogyo Kabushiki Kaisha, priority 1996, dated 2000).

≈ marks a conversion by molar mass, not a printed value.

Assay [1] has as its system Helicobacter pylori standard strain ATCC 43526 (NCTC 11916). The assay is described as follows: Antibacterial Test 1: MIC against Helicobacter pylori, agar plate dilution method (anaerobic MIC method). It is filed as cell-based. As to conditions: 72 h, Hp ATCC 43526, agar plate dilution, 37° C., 3 days.
A further assay relates to B. subtilis PCI 219. Put plainly: Antibacterial Test 2: MIC, agar dilution method (aerobic MIC method). As to conditions: Bacillus subtilis, PCI219. It is filed as cell-based. How it is done:
(§1) Then, tested were antibacterial activities of the typical compounds of the present invention against gram-positive and -negative bacteria other than Hp. MICs of the typical compounds of the present invention were determined in substantial accordance with agar dilution method (aerobic MIC method) based on standard method of the Japan Society Chemotherapy.
(§2) The respective test compound were dissolved in dimethyl sulfoxide (DMSO) and serially diluted twofold to prepare solutions of the compounds with concentration of 0.05-100 μg/ml. The solutions of the compounds were respectively added to sensitive-disk agar medium-N (manufactured by NISSUI SEIYAKU) to prepare agar plates for determination.
(§3) The below-mentioned strains freezingly conserved at -135° C. were thawed in a warm bath (40° C.), cultured in a sensitivity-determining bouillon at 37° C. for 18-20 hours, and then diluted with the above-mentioned medium to prepare about 1.0×10^6 CFU/ml of bacterial suspension.
(§4) Inoculation was made by 5 μl by multi-inoculator (manufactured by SAKUMA SEISAKUSHO). Culturing was made under the same conditions as those of the pre-culturing and the MIC (unit: μg/ml) was determined by observing whether the bacteria grew or not.
Background: In agar dilution, organisms are placed on agar that contains the substance at set levels.

In another assay the test system is E. coli NIHJ JC-2. The description is as above. The assay is classed as cell-based. The settings on record: Escherichia coli, NIHJJC2. How it is done:
as §1, §2, §3, §4

The next assay deals with E. faecalis RIMD 3336001. The description is as above. The assay is classed as cell-based. The settings on record: Enterococcus faecalis, RIMD3336001. Here is the method:
as §1, §2, §3, §4

The next assay concerns K. pneumoniae PCI 602. Described as above. It is filed as cell-based. The settings on record: Klebsiella pneumoniae, PCI602. How it is done:
as §1, §2, §3, §4

In another assay the test system is M. luteus ATCC 9341. Described as above. The assay is classed as cell-based. The settings on record: Micrococcus luteus, ATCC9341. Here is the method: as §1, §2, §3, §4
The test system of the next assay is P. aeruginosa IFO 3445. The assay is described as above. As to conditions: Pseudomonas aeruginosa, IFO3445. It is filed as cell-based. How it is done: as §1, §2, §3, §4
The next assay has as its system S. aureus FDA 209P. The description is as above. The settings on record: Staphylococcus aureus, FDA209P. It is filed as cell-based. Here is the method:
as §1, §2, §3, §4

Assay [2] relates to seven gram-positive or -negative strains. Put plainly: Antibacterial Test 2: MIC against each of the seven strains. The assay is classed as cell-based. As to conditions: each of S. aureus, M. luteus, E. faecalis, B. subtilis, E. coli, K. pneumoniae, P. aeruginosa; read-out: MIC of each of the above-mentioned seven strains. Here is the method: as §1, §2, §3, §4
The test system of another assay is peptic ulcer. The settings on record: up to; cited from earlier work.

The term MIC denotes the least concentration at which growth counts as inhibited. Take `O=C(CSc1ccnc2ccccc12)c1ccc2ccccc2c1` [Compound 2, 4-[2-(2-Naphtyl)-2-oxoethylthio]quinoline]: the MIC in assay [1] was 0.2 µg/mL (≈ 0.607 µM); in the assay with B. subtilis PCI 219, > 100 µg/mL; against E. coli NIHJ JC-2 it was > 100 µg/mL; in the assay on E. faecalis RIMD 3336001, > 100 µg/mL; against K. pneumoniae PCI 602, > 100 µg/mL; in the assay on M. luteus ATCC 9341 it was > 100 µg/mL. Further, the MIC with P. aeruginosa IFO 3445 and in the assay on S. aureus FDA 209P was > 100 µg/mL throughout.
Regarding `CC1(C)S[C@@H]2[C@H](NC(=O)[C@H](N)c3ccc(O)cc3)C(=O)N2[C@H]1C(=O)O` [amoxicillin, reference compound], the MIC in assay [1] was 0.05 µg/mL (≈ 0.137 µM); with B. subtilis PCI 219, 0.2 µg/mL (≈ 0.547 µM); against E. coli NIHJ JC-2 it was 3.13 µg/mL (≈ 8.57 µM); against E. faecalis RIMD 3336001, 0.2 µg/mL (≈ 0.547 µM); against K. pneumoniae PCI 602, 50 µg/mL (≈ 137 µM); with M. luteus ATCC 9341 it was ≤ 0.05 µg/mL. The values for the MIC against P. aeruginosa IFO 3445 and with S. aureus FDA 209P were > 100 µg/mL and 0.1 µg/mL (≈ 0.274 µM), respectively.
Regarding `CN(C)c1ccc(CCSc2ccnc3ccccc23)cc1` [Compound 27, 4-[2-(4-Dimethylaminophenyl)ethylthio]quinoline], the MIC in [1] was 0.1 µg/mL (≈ 0.324 µM); in the assay with B. subtilis PCI 219, > 100 µg/mL; in the assay on E. coli NIHJ JC-2, > 100 µg/mL; with E. faecalis RIMD 3336001 it was > 100 µg/mL; with K. pneumoniae PCI 602 it was > 100 µg/mL; in the assay on M. luteus ATCC 9341, > 100 µg/mL. The figures for the MIC with P. aeruginosa IFO 3445 and in the assay on S. aureus FDA 209P were > 100 µg/mL and 50 µg/mL (≈ 162 µM), respectively.
Turning to `CN(C)c1ccc(C(=O)CSc2ccnc3ccccc23)cc1` [Compound 26, 4-[2-(4-Dimethylaminophenyl)-2-oxoethylthio]quinoline], the MIC is 0.1 µg/mL (≈ 0.31 µM) in assay [1]; > 100 µg/mL with B. subtilis PCI 219; > 100 µg/mL in the assay with E. coli NIHJ JC-2; > 100 µg/mL in the assay on E. faecalis RIMD 3336001; > 100 µg/mL in the assay on K. pneumoniae PCI 602; > 100 µg/mL with M. luteus ATCC 9341. For the same molecule, the MIC against P. aeruginosa IFO 3445 and in the assay with S. aureus FDA 209P was > 100 µg/mL each time.
Regarding `CC(C)[C@H](NC(=O)OC(C)(C)C)C(=O)N1CCN(c2ccc(C(=O)CSc3ccnc4ccccc34)cc2)CC1` [Compound 79, 4-[2-[4-[4-(N-tert-Butoxycarbonylvalyl)-1-piperazinyl]-phenyl]-2-oxoethylthio]quinoline], the values for the MIC in [1] and in assay [2] were 0.0016 µg/mL (≈ 0.00284 µM) and > 100 µg/mL, respectively.
`Cc1c(OCC(F)(F)F)ccnc1C[S+]([O-])c1nc2ccccc2[nH]1` (centres unmarked) [lansoprazole, reference compound]: the MIC was 12.5 µg/mL (≈ 33.8 µM) in assay [1]; > 100 µg/mL in the assay with B. subtilis PCI 219; > 100 µg/mL in the assay with E. coli NIHJ JC-2; > 100 µg/mL against E. faecalis RIMD 3336001; > 100 µg/mL against K. pneumoniae PCI 602; > 100 µg/mL against M. luteus ATCC 9341. In addition, the MIC against P. aeruginosa IFO 3445 and in the assay with S. aureus FDA 209P was > 100 µg/mL each time.
As for `CC[C@H]1OC(=O)[C@H](C)[C@@H](O[C@H]2C[C@@](C)(OC)[C@@H](O)[C@H](C)O2)[C@H](C)[C@@H](O[C@@H]2O[C@H](C)C[C@H](N(C)C)[C@H]2O)[C@](C)(OC)C[C@@H](C)C(=O)[C@H](C)[C@@H](O)[C@]1(C)O` [clarithromycin, reference compound], the MIC is 0.025 µg/mL (≈ 0.0334 µM) in [1]; 0.2 µg/mL (≈ 0.267 µM) against B. subtilis PCI 219; 100 µg/mL (≈ 134 µM) with E. coli NIHJ JC-2; 0.39 µg/mL (≈ 0.521 µM) in the assay with E. faecalis RIMD 3336001; 6.25 µg/mL (≈ 8.36 µM) in the assay on K. pneumoniae PCI 602; ≤ 0.05 µg/mL against M. luteus ATCC 9341. Further, the MIC is > 100 µg/mL against P. aeruginosa IFO 3445 and 0.1 µg/mL (≈ 0.134 µM) against S. aureus FDA 209P.
Consider `O=C(CSc1ccnc2ccccc12)c1ccc(N2CCN(C(=O)OCc3ccccc3)CC2)cc1` [Compound 78, 4-[2-[4-(4-Benzyloxycarbonyl-1-piperazinyl)phenyl)-2-oxoethylthio]quinoline], for which the figures for the MIC in [1] and in [2] were 0.0031 µg/mL (≈ 0.00623 µM) and > 100 µg/mL, respectively.
For `COc1ccc2[nH]c([S+]([O-])Cc3ncc(C)c(OC)c3C)nc2c1` (centres unmarked) [omeprazole], in the assay with peptic ulcer, the cure rate is listed as 80-90%.
With `O=C(CSc1ccnc2ccccc12)c1ccc(N2CCN(C(=O)OCC(Cl)(Cl)Cl)CC2)cc1` [Compound 81, 4-[2-[4-[4-(2,2,2-Trichloroethoxycarbonyl)-1-piperazinyl]phenyl]-2-oxoethylthio]quinoline], the MIC in assay [1] is 0.0016 µg/mL (≈ 0.00297 µM); in [2], > 100 µg/mL.
Consider `CC(C)(C)OC(=O)N1CCC(Nc2ccc(C(=O)CSc3ccnc4ccccc34)cc2Br)C1` (centres unmarked) [Compound 65, 4-[2-[3-Bromo-4-(1-tert-butoxycarbonyl-3-pyrrolidinylamino)phenyl]-2-oxoethylthio]quinoline], for which the MIC in assay [1] was 0.0031 µg/mL (≈ 0.00571 µM); in assay [2] it was > 100 µg/mL.
As to `O=C(CSc1ccnc2ccccc12)c1ccc(N2CCOCC2)cc1` [Compound 11, 4-[2-(4-Morpholinophenyl)-2-oxoethylthio]quinoline], the MIC in [1] was 0.0125 µg/mL (≈ 0.0343 µM); against B. subtilis PCI 219, > 100 µg/mL; in the assay with E. coli NIHJ JC-2, > 100 µg/mL; with E. faecalis RIMD 3336001 it was > 100 µg/mL; with K. pneumoniae PCI 602, > 100 µg/mL; with M. luteus ATCC 9341 it was > 100 µg/mL. Besides, the MIC with P. aeruginosa IFO 3445 and in the assay on S. aureus FDA 209P was > 100 µg/mL throughout.
On to `O=C(CSc1ccnc2ccccc12)c1ccc(N2CCOCC2)c(Br)c1` [Compound 10, 4-[2-(3-Bromo-4-morpholinophenyl)-2-oxoethylthio]-quinoline], for which the MIC in [1] is 0.0031 µg/mL (≈ 0.00699 µM); with B. subtilis PCI 219, > 100 µg/mL; against E. coli NIHJ JC-2, > 100 µg/mL; in the assay on E. faecalis RIMD 3336001, > 100 µg/mL; against K. pneumoniae PCI 602, > 100 µg/mL; with M. luteus ATCC 9341 it was > 100 µg/mL. For the same molecule, the MIC in the assay on P. aeruginosa IFO 3445 and in the assay with S. aureus FDA 209P was > 100 µg/mL each time.
Regarding `O=C(CSc1ccnc2ccccc12)c1ccc(NCc2ccccc2)cc1` [Compound 23, 4-[2-(4-Benzylaminophenyl)-2-oxoethylthio]quinoline], the MIC in [1] was 0.025 µg/mL (≈ 0.065 µM); against B. subtilis PCI 219 it was > 100 µg/mL; in the assay with E. coli NIHJ JC-2 it was > 100 µg/mL; with E. faecalis RIMD 3336001 it was > 100 µg/mL; in the assay with K. pneumoniae PCI 602, > 100 µg/mL; with M. luteus ATCC 9341 it was > 100 µg/mL. Also, the MIC with P. aeruginosa IFO 3445 and with S. aureus FDA 209P was > 100 µg/mL throughout.
For the molecule `CN/C(=N/CCSCc1nc[nH]c1C)NC#N` [cimetidine], in the assay on peptic ulcer, the cure rate is listed as 80-90%.
With `CSc1ccc2c(SCc3ccc(N)cc3)ccnc2c1` [Compound 34, 4-(4-Aminobenzylthio)-7-methylthioquinoline], the MIC in [1] was 0.2 µg/mL (≈ 0.64 µM); in the assay on B. subtilis PCI 219, > 100 µg/mL; in the assay with E. coli NIHJ JC-2 it was > 100 µg/mL; with E. faecalis RIMD 3336001 it was > 100 µg/mL; in the assay with K. pneumoniae PCI 602, > 100 µg/mL; in the assay with M. luteus ATCC 9341 it was > 100 µg/mL. Also, the MIC against P. aeruginosa IFO 3445 and in the assay on S. aureus FDA 209P was > 100 µg/mL in each case.
`CC(C)(C)OC(=O)N1CCN(c2ccc(C(=O)CSc3ccnc4ccccc34)cc2)CC1` [Compound 49, 4-[2-[4-(4-tert-Butoxycarbonyl-1-piperazinyl)phenyl]-2-oxoethylthio]quinoline]: the MIC was 0.0008 µg/mL (≈ 0.00173 µM) in assay [1]; > 100 µg/mL in the assay on B. subtilis PCI 219; > 100 µg/mL against E. coli NIHJ JC-2; > 100 µg/mL against E. faecalis RIMD 3336001; > 100 µg/mL against K. pneumoniae PCI 602; > 100 µg/mL with M. luteus ATCC 9341. In addition, the minimum inhibitory concentration (MIC) against P. aeruginosa IFO 3445 and against S. aureus FDA 209P was > 100 µg/mL in each case.
